In US20240325533A1, “MODIFIED IMMUNE CELLS AND METHODS OF USING THE SAME” (Beam Therapeutics Inc., priority 2021, published 2024):

Assays:
EGFR-specific CAR = assay: CAR expression by flow cytometry after editing (anti-idiotype antibody staining); assay type: cell-based, human
Excerpt: FIGS. 4A-4C provide flow cytometry graphs and bar graphs. FIGS. 4A and 4B depict CAR expression after editing A2A, HIF1α, and A2B target sites in CAR-T cells using guides. FIG. 4A provides flow cytometry graphs depicting CAR expression controls for electroporation (EP) only and untransduced (UTD) CAR-T cells. FIG. 4B are flow cytometry graphs depicting CAR expression of edited A2AR target sites using guides g145, g155, and Cas9 (top), edited HIF1α target sites using guides g168, g170, and g173 (middle), and edited A2B target sites using guides g221, g222, and Cas9 (bottom). FIG. 4C is a bar graph quantifying the CAR expression observed in the flow cytometry graphs of FIG. 4B. Consistent 60% CAR expression was seen across all guides and editing targets. There was no observed impact of editing on CAR expression.
FIG. 19A provides a bar graph showing base editing of the ADORA2A gene quantified via next generation sequencing (NGS). […] FIG. 19D provides a schematic providing an overview of a process for generating multiplex base edited EGFR-targeting ARC T cells. In FIG. 19B, each set of three bars correspond to, from left-to-right, TCR, HLA Class I, and HLA Class II. In FIGS. 19A-19D, “Base Editing Guide 1” […] indicates cells edited using the base editor ABE8.20 in combination with the guide sgRNA145 (see Table 1A), “Base Editing Guide 2” (BE2) indicates cells edited using the base editor ABE8.20 in combination with the guide sgRNA155, and “CRISPR Guide” indicates cells edited using a CRISPR guide and editor known to be effective in knocking out expression of A2AR.
FIG. 25 provides a set of flow cytometry scatter plots showing chimeric antigen receptor expression in EGFR-targeting CAR-T cells edited to knock out expression of the indicated polypeptides (i.e., A2AR, PD1, TGFbRII, or combinations thereof). At the end of culturing, T cells were stained with an anti-idiotype antibody. […] was knocked out using the guide TSBTx2043, PD1 expression was knocked out using the guide TSBTx025, TGFbR expression was knocked out using the guide TSBTx5277, and “Triple KO” cells were editing using all three guides (see Table 1B).

pCREB = pCREB expression (flow cytometry) in A2AR knockout T cells treated with CADO; assay type: cell-based; details: 30 μM CADO vs DMSO, FIG. 14
Description: FIG. 14 provides histograms depicting expression of pCREB in A2AR knockout T cells using guides g145 and g155. Cas9 and Electroporation (EP) only were used as controls. In the plots, the darker-grey histogram corresponds to DMSO and the lighter-grey histogram corresponds to 30 μM CADO. […] Throughout the figures, the term “CADO” represents 2-chloroadenosine.
FIGS. 20A-20E provide flow cytometry histograms, bar graphs, a plot, and images showing adenosine-resistant CAR-T cells (CAR-T cells) were protected from adenosine-mediated suppression in vitro. […] H266 cells expressing GFP were plated in ultra-low adherent 96-well plates and incubated at 36° C. for 3 days to allow for spheroid formation. Then, untransduced cells (UTD), ARC T cells, or CAR T cells expressing TCR, HLA Class I, HLA Class II, and ADAR were added to the wells at a 1:2 effector to target ratio (E:T) with 0 μM adenosine. Plates were then placed in an Incucyte live imaging analysis instrument and cytotoxicity was measured via reduction in GFP+ spheroid volume over time. […]

IFNγ production = IFNγ production of A2AR knockout T cells in the presence of CADO / extracellular adenosine; assay type: cell-based; details: normalized to 0 μM CADO (DMSO only), FIG. 15
Description: FIG. 15 presents bar graphs depicting IFNγ production after 48 hours in A2AR knockout T cells using guides g145 and g155. The data shown in FIG. 15 is normalized to IFNγ production in 0 μM CADO (DMSO only treatment). A2A knockout protected CAR-T cells from adenosine-mediated cytokine suppression.
FIGS. 20A-20E provide flow cytometry histograms, bar graphs, a plot, and images showing adenosine-resistant CAR-T cells (CAR-T cells) were protected from adenosine-mediated suppression in vitro. […] H266 cells expressing GFP were plated in ultra-low adherent 96-well plates and incubated at 36° C. for 3 days to allow for spheroid formation. Then, untransduced cells (UTD), ARC T cells, or CAR T cells expressing TCR, HLA Class I, HLA Class II, and ADAR were added to the wells at a 1:2 effector to target ratio (E:T) with 0 μM adenosine. Plates were then placed in an Incucyte live imaging analysis instrument and cytotoxicity was measured via reduction in GFP+ spheroid volume over time. In FIGS. 19A-19D, “BE KO1” indicates cells edited using the base editor ABE8.20 in combination with the guide sgRNA145 (see Table 1A), “BE KO2” indicates cells edited using the base editor ABE8.20 in combination with the guide sgRNA155, and “CRISPR KO” indicates cells edited using a CRISPR guide and editor known to be effective in knocking out expression of A2AR.

SKOV3 or H226 cells = assay: IFNγ production of EGFR CAR-Ts with HIF1α edits co-cultured with tumor cells in 1% O2; assay type: cell-based; details: 1 to 1 E:T ratio, 1% O2, 48 hours, vs unedited EGFR CAR-T cells, FIG. 10
Description: FIG. 10 provides bar graphs depicting IFNγ production (pg/mL) after EGFR CAR-Ts with HIF1α edits were co-cultured at 1 to 1 E:T ratio with either SKOV3 or H226 cells in 1% O2 for 48 hours. HIF1α was edited using guides g170 and g173. Electroporation (EP) only was used as a control. EGFR CAR-T cells with HIF1α knockout edits produced more cytokine under hypoxic stress than unedited EGFR CAR-T cells.

[1] = after editing A2A, HIF1α, and A2B target sites in CAR-T cells, FIG. 4C

Substance | CAR expression (EGFR-specific CAR; [1]) [%] | upregulation of downstream pCREB (pCREB) | IFNγ production after 48 hours (adenosine-mediated cytokine suppression) (IFNγ production) | IFNγ production (SKOV3 or H226 cells) | CAR expression (EGFR-specific CAR; EGFR-targeting CAR-T cells with A2AR, PD1, TGFbRII knock-out or combinations, anti-idiotype antibody, FIG. 25)
CUGCUCACCGGAGCGGGAUG (chemistry not given here) [sgRNA145, guide RNA spacer; A2AR; CBE; Ex1 SD (Pos 8)] | 60 | no upregulation | protected | – | –
UCUCCCCAGGUACAAUGGCU (chemistry not given here) [sgRNA155, guide RNA spacer; A2AR; ABE (ABE8.20); Ex2 SA (Pos 8)] | 60 | no upregulation | protected | – | –
ACACAGGUAUUGCACUGCAC (chemistry not given here) [sgRNA170, guide RNA spacer; HIF1α; ABE; Ex6 SA (Pos 5)] | 60 | – | – | more cytokine | –
GGCCAUGCUGCUGGAGACAC (chemistry not given here) [sgRNA221, guide RNA spacer; A2BR; ABE; Ex1 START (Pos 5)] | 60 | – | – | – | –
UCACCUGAGCGGGACACAGA (chemistry not given here) [sgRNA222, guide RNA spacer; A2BR; Ex1 SD (Pos 4); used with CBE] | 60 | – | – | – | –
UUUCAGAACUACAGUUCCUG (chemistry not given here) [sgRNA173, guide RNA spacer; HIF1α; ABE (ABE8.20); Ex13 SA (Pos 5)] | 60 | – | – | more cytokine | –
TSBTx5277: guide used with Cas12b to knock out TGFbR2 (guide CCCAGAGCACCAGAGCCAUGGA; listed as RNA, chemistry not given here) | – | – | – | – | No differences
UGUUUACAGUUUGAACUAAC (chemistry not given here) [sgRNA168, guide RNA spacer; HIF1α; ABE; Ex4 SA (Pos 8)] | 60 | – | – | – | –
